Laboratory results: article PMC8778187, “A New Oxygen Containing Pyclen-Type Ligand as a Manganese(II) Binder for MRI and ^52Mn PET Applications: Equilibrium, Kinetic, Relaxometric, Structural and Radiochemical Studies” (Molecules, 2022)

Legend:
[1] = Ligand protonation constants by pH-potentiometric titration; assay type: physicochemical; conditions: T = 25 °C, I = 0.15 M NaCl
Procedure: The protonation constants of H2OPC2A have been determined by pH-potentiometry in 0.15 M NaCl ionic medium, and the constants determined are listed in Table 2, along with the corresponding values determined for structurally similar ligands used as comparative benchmarks (H23,9-PC2A, H23,6-PC2A, H21,4-DO2A, H21,7-DO2A, and H21,7-O2DO2A).
(§1) Metal stock solutions were prepared from the highest analytical grade chemicals, and their concentrations were determined by complexometric titration with standardized Na2H2EDTA and eriochrome black T indicator in the presence of ascorbic acid, and potassium hydrogen tartrate for MnCl2, murexide indicator for CaCl2 and CuCl2, eriochrome black T for MgCl2 and xylenol orange in the presence of hexamethylenetetramine for the solution of ZnCl2. The concentration of the ligand stock solution was determined by pH-potentiometric titrations. The protonation constants of the ligand were determined by the pH potentiometric titrations with 0.15 M NaOH, using 0.0025 M ligand solutions. The ionic strength was set to 0.15 M by using NaCl. […]
(§2) To avoid the effect of CO2, N2 gas was bubbled through the solutions during the titrations process. […] For the calibration of the pH meter, KH-phtalate (pH = 4.005) and borax (pH = 9.177) buffers were used, and the H^+ ion concentrations were calculated from the measured pH values by applying the method proposed by Irving et al.. […]

[2] = Stability and protonation constants of Ca(II) complexes by pH-potentiometry; assay type: physicochemical; conditions: Ca^2+ complex; T = 25 °C, I = 0.15 M NaCl
Procedure: The stability and protonation constants of the metal complexes formed with H2OPC2A were determined by pH-potentiometric titrations, but, for the Cu(II) complex, UV-Vis spectrophotometric measurements were also carried out to supplement the pH-potentiometric titration data (Figures S21 and S22, Supporting Information).
as §1, §2

[3] = Serum stability in Seronorm followed by r1p relaxation rates; assay type: in vitro ADME, human
Procedure: Serum “stability” of the [Mn(3,9-OPC2A)] chelate: during MRI investigations, the CAs are injected into the vein of the patients and, following their injection, the complexes can meet with different proteins present in the blood serum, which are known to bind the essential metal ions in relatively strong manner. Therefore, the plasma proteins can potentially initiate transmetalation/transchelation reactions, especially in the case of Mn(II) complexes whose thermodynamic stability is lower than the stability of the chelates formed with essential metal ions, such as Zn(II) or Cu(II). What is more, for some Mn(II) complexes, depending upon the stability constants, of course, the Ca(II) ions present at high concentrations in the serum can initiate the dissociation of the complex, as in the case of [Mn(EGTA)]^2^−, [Mn(BAPTA)]^2^−, or [Mn(CaM)], for instance. In nuclear medicine, serum “stability” studies are routinely performed, in order to access the integrity of the chelates in the given competitive media.
The serum stability of the Mn(II) complexes was studied by following the r1p relaxation rates of the complex over time, using 1.0 mM solutions in SeronormTM (Seronorm = commercially available lyophilized human blood serum, Sero, Stasjonsveien, Norway) at pH = 7.43 and 25 °C.

log K3^H [1] | Σlog Κ2^H ([1]; log K1^H + log K2^H) | log KMnL [2] | time over which the relaxation rate remained constant in Seronorm ([3]; 1.0 mM complex, pH = 7.43, 25 °C, negligible dissociation) | r1p in Seronorm solution ([3]; 1.41 T, 25 °C) | SMILES
2.13(1) | 15.39 | 8.27(1) |  |  | O=C(O)CN1CCOCCN(CC(=O)O)Cc2cccc(n2)C1 [H23,9-OPC2A, 6-Oxa-3,9,15-triazabicyclo(9.3.1)pentadeca-1(15),11,13-triene-3,9-diacetic acid]
 |  |  | at least 80 h | 5.09 mM⁻¹ s⁻¹ | O=C([O-])CN1CCOCCN(CC(=O)[O-])Cc2cccc(n2)C1.[Mn+2] [[Mn(3,9-OPC2A)]]
